Test results published in US6573218B1, “Fused-benzene derivatives useful as herbicides” (Ishihara Sangyo Kaisha, Ltd., priority 1998, dated 2003).

Legend:
Type in all cases: in vivo
[1] = test system: barnyardgrass (Echinochloa crus-galli, ECHCG); assay: Pre-emerge greenhouse herbicide test; conditions: 14 days after application, scale 0-100 (0 no damage, 100 complete death)
Description: (§1) A standard greenhouse herbicide activity screening system was used to evaluate the herbicidal efficacy and crop safety of these test compounds. Seven broadleaf weed species including redroot pigweed (Amaranthus retroflexus, AMARE), velvetleaf (Abutilon theophrasti, ABUTH), sicklepod (Cassia obtusifolia, CASOB), ivyleaf morningglory (Ipomoea hederacea, IPOHE), lambsquarters (Chenopodium album, CHEAL), common ragweed (Ambrosia artemisiifolia L., AMBEL), and cocklebur (Xanthium strumarium, XANST) were used as test species. Four grass weed species including green foxtail (Setaria viridis, SETVI), barnyardgrass (Echinochloa crus-galli, ECHCG), johnsongrass (Sorghum halepense, SORHA), and large crabgrass (Digitaria sanguinalis, DIGSA) were also used. In addition, three crop species, field corn (Zea mays L., var. Dekalb 527, CORN), soybean (Glycine max L., var. Pella 86, SOY), and upland rice (Ory0a sp., var.Tebonnet, RICE) were included.
(§2) All plants were grown in 10 cm square plastic pots which were filled with a sandy loam soil mix. For pre-emerge tests, seeds were planted one day prior to application of the test compounds. For post-emerge tests, seeds were planted 8-21 days prior to the test to allow emergence and good foliage development prior to application of the test substances. At the time of the post-emerge application, plants of all species were usually at the 2-3 leaf stage of development.
(§3) All test compounds were dissolved in acetone and applied to the test units in a volume of 187 l/ha. Test materials were applied at rates ranging from 15 g ai/ha to 1000 g ai/ha using a track sprayer equipped with a TJ8001E even flow flat fan spray nozzle. Plants were arranged on a shelf so that the top of the canopy (post-emerge) or top of the soil surface (pre-emerge) was 40-45 cm below the nozzle. Pressurized air was used to force the test solution through the nozzle as it was mechanically advanced over the top of all test plants/pots. This application simulates a typical commercial field herbicide application.
(§4) In the post-emerge test, a commercial non-ionic surfactant was also included (0.25% v/v) to enhance wetting of the leaf surfaces of target plants. Immediately after application, test units of the pre-emerge applications were watered at the soil surface to incorporate the test materials.
(§5) At 14 days after application of the test materials, phytotoxicity ratings were recorded. A rating scale of 0-100 was used as previously described in Research Methods in Weed Science, 2nd edition, B. Truelove, Ed., Southern Weed Science Society, Auburn University, Auburn, Ala., 1977. Briefly, “0” corresponds to no damage and “100” corresponds to complete death of all plants in the test unit. This scale was used both to determine efficacy against weed species and damage to crop species. Herbicide activity data for various compounds of this invention, which are shown by compound No. in Tables 1-14, are shown in Tables 16 and 17.

[2] = test system: green foxtail (Setaria viridis, SETVI); assay: Pre-emerge greenhouse herbicide test; conditions: 14 days after application, scale 0-100 (0 no damage, 100 complete death)
Description: as §1, §2, §3, §4, §5

[3] = test system: ivyleaf morningglory (Ipomoea hederacea, IPOHE); assay: Pre-emerge greenhouse herbicide test; conditions: 14 days after application, scale 0-100 (0 no damage, 100 complete death)
Description: as §1, §2, §3, §4, §5

[4] = test system: lambsquarters (Chenopodium album, CHEAL); assay: Pre-emerge greenhouse herbicide test; conditions: 14 days after application, scale 0-100 (0 no damage, 100 complete death)
Description: as §1, §2, §3, §4, §5

[5] = test system: large crabgrass (Digitaria sanguinalis, DIGSA); assay: Pre-emerge greenhouse herbicide test; conditions: 14 days after application, scale 0-100 (0 no damage, 100 complete death)
Description: as §1, §2, §3, §4, §5

[6] = test system: redroot pigweed (Amaranthus retroflexus, AMARE); assay: Pre-emerge greenhouse herbicide test; conditions: 14 days after application, scale 0-100 (0 no damage, 100 complete death)
Description: as §1, §2, §3, §4, §5

[7] = test system: sicklepod (Cassia obtusifolia, CASOB); assay: Pre-emerge greenhouse herbicide test; conditions: 14 days after application, scale 0-100 (0 no damage, 100 complete death)
Description: as §1, §2, §3, §4, §5

[8] = test system: velvetleaf (Abutilon theophrasti, ABUTH); assay: Pre-emerge greenhouse herbicide test; conditions: 14 days after application, scale 0-100 (0 no damage, 100 complete death)
Description: as §1, §2, §3, §4, §5

[9] = test system: field corn (Zea mays L., var. Dekalb 527, CORN); assay: Pre-emerge greenhouse crop damage test
Description: as §1, §2, §3, §4, §5

[10] = test system: soybean (Glycine max L., var. Pella 86, SOY); assay: Pre-emerge greenhouse crop damage test
Description: as §1, §2, §3, §4, §5

[11] = test system: upland rice (Ory0a sp., var.Tebonnet, RICE); assay: Pre-emerge greenhouse crop damage test; conditions: in vivo
Description: as §1, §2, §3, §4, §5

[12] = test system: barnyardgrass (Echinochloa crus-galli, ECHCG); assay: Post-emerge greenhouse herbicide test; conditions: 14 days after application
Description: as §1, §2, §3, §4, §5

[13] = test system: green foxtail (Setaria viridis, SETVI); assay: Post-emerge greenhouse herbicide test; conditions: 14 days after application
Description: as §1, §2, §3, §4, §5

[14] = test system: ivyleaf morningglory (Ipomoea hederacea, IPOHE); assay: Post-emerge greenhouse herbicide test; conditions: 14 days after application
Description: as §1, §2, §3, §4, §5

[15] = test system: lambsquarters (Chenopodium album, CHEAL); assay: Post-emerge greenhouse herbicide test; conditions: 14 days after application
Description: as §1, §2, §3, §4, §5

[16] = test system: large crabgrass (Digitaria sanguinalis, DIGSA); assay: Post-emerge greenhouse herbicide test; conditions: 14 days after application
Description: as §1, §2, §3, §4, §5

[17] = test system: redroot pigweed (Amaranthus retroflexus, AMARE); assay: Post-emerge greenhouse herbicide test; conditions: 14 days after application
Description: as §1, §2, §3, §4, §5

[18] = test system: sicklepod (Cassia obtusifolia, CASOB); assay: Post-emerge greenhouse herbicide test; conditions: 14 days after application
Description: as §1, §2, §3, §4, §5

[19] = test system: velvetleaf (Abutilon theophrasti, ABUTH); assay: Post-emerge greenhouse herbicide test; conditions: 14 days after application
Description: as §1, §2, §3, §4, §5

[20] = test system: field corn (Zea mays L., var. Dekalb 527, CORN); assay: Post-emerge greenhouse crop damage test
Description: as §1, §2, §3, §4, §5

[21] = test system: soybean (Glycine max L., var. Pella 86, SOY); assay: Post-emerge greenhouse crop damage test
Description: as §1, §2, §3, §4, §5

[22] = test system: upland rice (Ory0a sp., var.Tebonnet, RICE); assay: Post-emerge greenhouse crop damage test
Description: as §1, §2, §3, §4, §5

[23] = test system: johnsongrass (Sorghum halepense, SORHA); assay: Pre-emerge greenhouse herbicide test; conditions: 250 g ai/ha, 14 days after application, scale 0-100 (0 no damage, 100 complete death)
Description: as §1, §2, §3, §4, §5

[24] = var. Dekalb 527, field corn (Zea mays L.), in vivo, 14 days
[25] = var. Pella 86, soybean (Glycine max L.), in vivo, 14 days
[26] = pre-emerge, 250 g ai/ha, 14 days after application, scale 0-100 (0 no damage, 100 complete death)
[27] = 250 g ai/ha, post-emerge, 14 days after application

Cn1c(C(F)(F)F)cc(=O)n(-c2ccc(Cl)c3ccccc23)c1=O [Compound 5-1, 3-(4-Chloronaphthalen-1-yl)-1-methyl-6-trifluoromethyl-2,4(1H,3H)-pyrimidindione]
Pre-emerge Herbicidal Activity ECHCG (phytotoxicity rating) ([1]; 500 g ai/ha): 60 | Pre-emerge Herbicidal Activity SETVI (phytotoxicity rating) ([2]; 500 g ai/ha): 100 | Pre-emerge Herbicidal Activity IPOHE (phytotoxicity rating) ([3]; 500 g ai/ha): 60 | Pre-emerge Herbicidal Activity CHEAL (phytotoxicity rating) ([4]; 500 g ai/ha): 100 | Pre-emerge Herbicidal Activity DIGSA (phytotoxicity rating) ([5]; 500 g ai/ha): 98 | Pre-emerge Herbicidal Activity AMARE (phytotoxicity rating) ([6]; 500 g ai/ha): 100 | Pre-emerge Herbicidal Activity CASOB (phytotoxicity rating) ([7]; 500 g ai/ha): 60 | Pre-emerge Herbicidal Activity ABUTH (phytotoxicity rating) ([8]; 500 g ai/ha): 100 | Pre-emerge Herbicidal Activity CORN (crop damage rating) [9, 24]: 70 | Pre-emerge Herbicidal Activity SOY (crop damage rating) [10, 25]: 70 | Pre-emerge Herbicidal Activity RICE (crop damage rating) ([11]; var. Tebonnet, upland rice (Ory0a sp.), 14 days): 70 | Post-emerge Herbicidal Activity ECHCG (phytotoxicity rating 0-100) ([12]; 500 g ai/ha): 70 | Post-emerge Herbicidal Activity SETVI (phytotoxicity rating 0-100) ([13]; 500 g ai/ha): 100 | Post-emerge Herbicidal Activity IPOHE (phytotoxicity rating 0-100) ([14]; 500 g ai/ha): 60 | Post-emerge Herbicidal Activity CHEAL (phytotoxicity rating 0-100) ([15]; 500 g ai/ha): 100 | Post-emerge Herbicidal Activity DIGSA (phytotoxicity rating 0-100) ([16]; 500 g ai/ha): 60 | Post-emerge Herbicidal Activity AMARE (phytotoxicity rating 0-100) ([17]; 500 g ai/ha): 100 | Post-emerge Herbicidal Activity CASOB (phytotoxicity rating 0-100) ([18]; 500 g ai/ha): 60 | Post-emerge Herbicidal Activity ABUTH (phytotoxicity rating 0-100) ([19]; 500 g ai/ha): 100 | Post-emerge crop damage CORN (phytotoxicity rating 0-100) [20, 24]: 0 | Post-emerge crop damage SOY (phytotoxicity rating 0-100) [21, 25]: 0 | Post-emerge crop damage RICE (phytotoxicity rating 0-100) ([22]; var. Tebonnet, upland rice (Ory0a sp.), in vivo, 14 days): 0

Nn1c(C(F)(F)F)cc(=O)n(-c2c(F)cc(Cl)c3c2NC(=O)CO3)c1=O [Compound 4-2]
Pre-emerge Herbicidal Activity ECHCG (phytotoxicity rating) ([1]; 250 g ai/ha): 80 | Pre-emerge Herbicidal Activity SETVI (phytotoxicity rating) ([2]; 250 g ai/ha): 80 | Pre-emerge Herbicidal Activity IPOHE (phytotoxicity rating) ([3]; 250 g ai/ha): 100 | Pre-emerge Herbicidal Activity SORHA (phytotoxicity rating) [23]: 65 | Pre-emerge Herbicidal Activity CHEAL (phytotoxicity rating) ([4]; 250 g ai/ha): 100 | Pre-emerge Herbicidal Activity DIGSA (phytotoxicity rating) ([5]; 250 g ai/ha): 70 | Pre-emerge Herbicidal Activity AMARE (phytotoxicity rating) ([6]; 250 g ai/ha): 100 | Pre-emerge Herbicidal Activity CASOB (phytotoxicity rating) ([7]; 250 g ai/ha): 100 | Pre-emerge Herbicidal Activity ABUTH (phytotoxicity rating) ([8]; 250 g ai/ha): 100 | Pre-emerge Herbicidal Activity CORN (crop damage rating) [9, 26]: 100 | Pre-emerge Herbicidal Activity SOY (crop damage rating) [10, 26]: 95 | Pre-emerge Herbicidal Activity RICE (crop damage rating) [11]: 90 | Post-emerge Herbicidal Activity ECHCG (phytotoxicity rating 0-100) ([12]; 250 g ai/ha): 60 | Post-emerge Herbicidal Activity SETVI (phytotoxicity rating 0-100) ([13]; 250 g ai/ha): 40 | Post-emerge Herbicidal Activity IPOHE (phytotoxicity rating 0-100) ([14]; 250 g ai/ha): 100 | Post-emerge Herbicidal Activity CHEAL (phytotoxicity rating 0-100) ([15]; 250 g ai/ha): 100 | Post-emerge Herbicidal Activity DIGSA (phytotoxicity rating 0-100) ([16]; 250 g ai/ha): 20 | Post-emerge Herbicidal Activity AMARE (phytotoxicity rating 0-100) ([17]; 250 g ai/ha): 100 | Post-emerge Herbicidal Activity CASOB (phytotoxicity rating 0-100) ([18]; 250 g ai/ha): 90 | Post-emerge Herbicidal Activity ABUTH (phytotoxicity rating 0-100) ([19]; 250 g ai/ha): 100 | Post-emerge crop damage CORN (phytotoxicity rating 0-100) [20, 27]: 90 | Post-emerge crop damage SOY (phytotoxicity rating 0-100) [21, 27]: 100 | Post-emerge crop damage RICE (phytotoxicity rating 0-100) [22, 27]: 90

CCc1nc2c(N3C(=O)C4CCCCN4C3=S)c(F)cc(Cl)c2o1 (single isomer, unassigned) [Compound 7-6, 8-(7-Chloro-2-ethyl-5-fluorobenzoxazol-4-yl)-1,8-diazobicyclo[4,3,0]nonane-7-one-9-thione]
Post-emerge Herbicidal Activity ECHCG (phytotoxicity rating 0-100) ([12]; 250 g ai/ha): 0 | Post-emerge Herbicidal Activity SETVI (phytotoxicity rating 0-100) ([13]; 250 g ai/ha): 10 | Post-emerge Herbicidal Activity IPOHE (phytotoxicity rating 0-100) ([14]; 250 g ai/ha): 70 | Post-emerge Herbicidal Activity CHEAL (phytotoxicity rating 0-100) ([15]; 250 g ai/ha): 60 | Post-emerge Herbicidal Activity DIGSA (phytotoxicity rating 0-100) ([16]; 250 g ai/ha): 0 | Post-emerge Herbicidal Activity AMARE (phytotoxicity rating 0-100) ([17]; 250 g ai/ha): 30 | Post-emerge Herbicidal Activity CASOB (phytotoxicity rating 0-100) ([18]; 250 g ai/ha): 30 | Post-emerge Herbicidal Activity ABUTH (phytotoxicity rating 0-100) ([19]; 250 g ai/ha): 90 | Post-emerge crop damage CORN (phytotoxicity rating 0-100) [20, 27]: 30 | Post-emerge crop damage SOY (phytotoxicity rating 0-100) ([21]; in vivo): 50 | Post-emerge crop damage RICE (phytotoxicity rating 0-100) [22, 27]: 10
